Where “and” joins values, the source holds several entries; their conditions need not be identical. Identical values can stand only once. Like-named read-outs stand apart in the source and are kept apart here.
How the values were obtained:
Type in all cases: cell-based
AR-TIF2 PPI = target: T1, AR-TIF2 PPI (Homo sapiens, UniProt P10275); test: AR-TIF2 PPI biosensor (PPIB) HCS assay, inhibition of DHT-induced AR-TIF2 PPI formation; conditions: for IC50: U-2 OS cells, compounds 3 h prior to 25 nM DHT for 90 min
T1 construct: expressed in transfected cells; host or cells: U-2 OS osteosarcoma cells, co-infected with recombinant adenoviruses
T1 sequence (P10275 663-920 limits assumed): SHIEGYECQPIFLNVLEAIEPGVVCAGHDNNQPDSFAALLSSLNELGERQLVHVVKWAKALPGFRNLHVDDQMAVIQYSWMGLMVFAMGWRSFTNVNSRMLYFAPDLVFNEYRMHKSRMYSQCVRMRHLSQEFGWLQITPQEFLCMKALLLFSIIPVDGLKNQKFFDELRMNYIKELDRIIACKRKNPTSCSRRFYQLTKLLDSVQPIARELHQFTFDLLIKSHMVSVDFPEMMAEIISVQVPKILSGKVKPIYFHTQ
Method: Daughter plates containing 2 μL of the serially diluted compounds in DMSO were prepared and replicated from 384-well serial dilution master plates using a Janus MDT platform outfitted with a 384-well transfer head. Aluminum adhesive plate seals were applied, and plates were stored at −20 °C. For bioassay testing, daughter plates were withdrawn from −20 °C storage, thawed to ambient temperature, and centrifuged for 1 min at 100 × g, and plate seals were removed before 38 μL of serum-free media (SFM) was transferred into wells using a Matrix pipettor (ThermoFisher, Waltham, MA), to generate an intermediate stock concentration of validation compounds ranging from 0.977 to 500 μM (5.0% DMSO). Diluted compounds were mixed by repeated aspiration and dispensation using a 384-well P30 dispensing head on the Janus MDT platform and then, 5 μL of diluted compounds was transferred to assay plate wells to provide a final concentration range from 0.0977 to 50 μM (0.5% DMSO).
(§1) The AR-TIF2 PPIB HCS assay was performed in U-2 OS osteosarcoma cells as described previously. Briefly, U-2 OS cells were coinfected with recombinant adenovirus biosensor expression constructs and seeded at 2500 cells per well in 384-well collagen-coated microplates (Greiner BioOne #781956) and plates were incubated overnight at 37°C in 5% CO2 and 95% humidity. […] After the appropriate time, assay plates were fixed by transfer of 50 μL of pre-warmed (37°C) 7.4% formaldehyde and 2 μg/mL Hoechst 33342 in PBS and incubation at room temperature for 30 min. Liquid was aspirated, plates were washed twice with 85 μL PBS, leaving the final wash in the plate. Plates were sealed with adhesive aluminum plate seals, and fluorescent images of three fields of view were acquired in the DAPI (Hoechst stained nuclei), FITC (TIF2-GFP) and Texas Red (AR-RFP) channels on an ImageXpress Micro (IXM) automated HCS platform (Molecular Devices LLC, Sunnyvale, CA) using a 10X Plan Fluor 0.3 NA objective. Images were analyzed using the Translocation Enhanced (TE) image analysis module of the MetaXpress software as described previously.
(§2) In 384-well assays, DMSO minimum (n = 32) and maximum (n = 32) plate control wells were utilized to calculate signal-to-background ratios (S:B) and Z’-factor coefficient assay performance quality control statistics, and to normalize the signals of compound treated wells and to represent 0% and 100% respectively. For the 96-well AR-LBD H^3-DHT radioligand binding assay, eight minimum and maximum plate control wells were utilized to normalize the data. For the PC cell line growth inhibition assays we used the DMSO control data from the T0 and T72 assay plates to assess the dynamic range of the T0 to T72 cell growth, and to calculate S:B ratios and Z’-factor coefficient statistics for the assay signal window (T0 to T72). To normalize the 72 h compound exposure PC growth inhibition data, the signals from the compound treated wells were processed and expressed as% of the T72 DMSO plate controls. IC50 and GI50 values for each of the bioassays were calculated using Graph-Pad Prism 9 software to plot and fit data to curves using the Sigmoidal dose response variable slope equation Y = Bottom + [Top-Bottom]/ [1 + 10^^(LogEC50-X)*HillSlope].

U-2 OS cells = test: AR-TIF2 PPIB cell loss (Hoechst stained nuclei); conditions: 4.5 h compound exposure
Method: as §1

[1] = C4–2 PSA6.1-Luc viability counter screen; conditions: human, C4–2 cells (C4–2 PSA6.1-Luc); cytotoxicity counter screen; read-out: C4–2 PSA6.1-Luc viability CS GI50
[2] = PC-3-ARV7-GFP viability counter screen; conditions: human, PC3-AR-V7-GFP cells; cytotoxicity counter screen; read-out: PC-3-ARV7-GFP viability CS GI50
DU-145 cells = test: Prostate cancer cell line growth inhibition assay, DU-145; conditions: read-out: DU145 GI50 (AR−)
Method: (§3) The PC-3, DU-145, LNCaP, C4–2, and 22Rv1 PC cell line growth inhibition assays have been described previously. On day 1, each PC cell line was harvested, counted, and seeded into two 384-well assay plates, a time zero (T0) and a time 72 h (T72) plate. PC cell lines were all seeded at 1000 cells per well in 45 μL of tissue culture media in uncoated white clear bottom 384-well assay plates (VWR, # 82050–076) using a Matrix electronic multichannel pipette (Thermo Fisher Scientific, Waltham, MA) and cultured overnight at 37 °C, 5% CO2, and 95% humidity. On day 2, 25 μL of the Cell Titer Glo (CTG) (Promega Corporation, Madison, WI) detection reagent was dispensed into the wells of the T0 assay plate using a Matrix electronic multichannel pipette, and the RLUs were captured on the SpectraMax M5e (Molecular Devices LLC, Sunnyvale, CA) microtiter plate reader. Also on day 2, 5 μL of compounds were transferred into the test wells of the T72 384-well assay plates which were returned to the incubator for 72 h. Control wells received DMSO alone. On day 5, 25 μL of the CTG detection reagent was dispensed into the wells of the T72 assay plate using a Matrix electronic multichannel pipette, and the RLU’s were captured on the SpectraMax M5e microtiter plate reader platform.
as §2

C4–2 cells = test: Prostate cancer cell line growth inhibition assay, C4–2; conditions: read-out: C4–2 GI50 (AR +)
Method: as §3, §2

Structure (SMILES) | IC50 (AR-TIF2 PPI) | AR-TIF2 PPIB Cell Loss (U-2 OS cells) | GI50 [1] | GI50 [2] | GI50 (DU-145 cells; Homo sapiens, DU-145, 72 h) | GI50 (C4–2 cells; C4-2, 72 h) | GI50 (DU-145 cells; 72 h) | GI50 (C4–2 cells; 72 h) | Reduction in relative potency versus parent hit in AR-TIF2 PPIB assay formats (AR-TIF2 PPI; S1 analogs vs S1–1, S3–15 vs S3–14)
Cc1ccccc1-c1cc(O)c2c(c1)CN(c1nc(C(N)=O)cs1)CCO2 [S1–1] | 5.64 µM | >100 µM | > 100 µM | > 100 µM | > 100 µM | 31.7 µM |  |  | 
Cc1ccccc1-c1cc(O)c2c(c1)CN(c1nccs1)CCO2 [S1–3] | 30.5 µM | >100 µM |  |  |  |  | > 100 µM | 45.5 µM | 
Cc1nsc(NC(=O)N2CCC(Sc3ccccc3C)CC2)n1 [S2–6] | 1.06 µM | >100 µM | > 100 µM | > 100 µM | > 100 µM | 14.1 µM |  |  | 
Cc1c(-c2ccccc2F)[nH]c2ccc(CNC(=O)CCc3cn[nH]c3)cc12 [S3–11] | 3.25 µM and 3.2 µM | >100 µM | > 100 µM | > 100 µM | 18 µM | 7.93 µM |  |  | 
Cc1c(-c2ccccc2F)[nH]c2ccc(CNC(=O)CCc3cnccn3)cc12 [S3–12] | 4.24 µM | >100 µM | > 100 µM | > 100 µM | 6.82 µM | 1.92 µM |  |  | 
CC(=O)NCCC(=O)NCc1ccc2[nH]c(-c3ccccc3F)c(C)c2c1 [S3–13] | 7.16 µM | >100 µM | > 100 µM | > 100 µM | > 100 µM | 69.8 µM |  |  | 
Cc1c(-c2ccccc2F)[nH]c2ccc(CNC(=O)c3ccc(CO)o3)cc12 [S3–14] | 2.13 µM | >100 µM | > 100 µM | > 100 µM | > 100 µM | 33 µM |  |  | 
Cc1c(-c2ccc(F)cc2)[nH]c2ccc(CNC(=O)c3ccc(CO)o3)cc12 [S3–15] | 5.11 µM | >100 µM | > 100 µM | > 100 µM | 24.3 µM | 16.8 µM |  |  | ~ 2 fold

Source: article PMC12366525, “Characterization of allosteric modulators that disrupt androgen receptor co-activator protein-protein interactions to alter transactivation–Drug leads for metastatic castration resistant prostate cancer” (SLAS discovery : advancing life sciences R & D, 2023)
